Legend:
[1] = biological target: Activin receptor type-1-like (Homo sapiens) (UniProt P37023); conditions: Compound concentration 1000.0 nM
[2] = biological target: G protein-coupled receptor kinase 4 (Homo sapiens) (UniProt P32298); conditions: Compound concentration 1000.0 nM
[3] = biological target: Serine/threonine-protein kinase ULK2 (Homo sapiens) (UniProt Q8IYT8); conditions: Compound concentration 1000.0 nM
[4] = biological target: MAP kinase-interacting serine/threonine-protein kinase 2 (Homo sapiens) (UniProt Q9HBH9); conditions: Compound concentration 1000.0 nM
[5] = biological target: T1, 5-hydroxytryptamine receptor 1A (Homo sapiens) (UniProt P08908); conditions: Compound concentration 10.0 uM
T1 sequence (whole entry): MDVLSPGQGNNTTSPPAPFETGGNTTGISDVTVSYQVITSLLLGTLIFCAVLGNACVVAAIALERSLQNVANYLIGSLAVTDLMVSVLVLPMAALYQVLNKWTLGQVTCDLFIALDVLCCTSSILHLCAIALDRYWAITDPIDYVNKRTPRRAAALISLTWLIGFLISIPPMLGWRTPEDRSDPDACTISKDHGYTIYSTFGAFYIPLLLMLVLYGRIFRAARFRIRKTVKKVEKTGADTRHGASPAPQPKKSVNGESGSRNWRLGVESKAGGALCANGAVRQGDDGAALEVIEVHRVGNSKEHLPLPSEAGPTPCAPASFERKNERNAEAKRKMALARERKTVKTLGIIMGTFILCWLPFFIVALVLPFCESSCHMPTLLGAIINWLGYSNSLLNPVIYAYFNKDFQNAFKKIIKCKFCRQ

[6] = biological target: Serine/threonine-protein kinase 24 (Homo sapiens) (UniProt Q9Y6E0); conditions: Compound concentration 1000.0 nM
Sequence of Serine/threonine-protein kinase 24 (Homo sapiens) (Q9Y6E0 whole entry, looked up): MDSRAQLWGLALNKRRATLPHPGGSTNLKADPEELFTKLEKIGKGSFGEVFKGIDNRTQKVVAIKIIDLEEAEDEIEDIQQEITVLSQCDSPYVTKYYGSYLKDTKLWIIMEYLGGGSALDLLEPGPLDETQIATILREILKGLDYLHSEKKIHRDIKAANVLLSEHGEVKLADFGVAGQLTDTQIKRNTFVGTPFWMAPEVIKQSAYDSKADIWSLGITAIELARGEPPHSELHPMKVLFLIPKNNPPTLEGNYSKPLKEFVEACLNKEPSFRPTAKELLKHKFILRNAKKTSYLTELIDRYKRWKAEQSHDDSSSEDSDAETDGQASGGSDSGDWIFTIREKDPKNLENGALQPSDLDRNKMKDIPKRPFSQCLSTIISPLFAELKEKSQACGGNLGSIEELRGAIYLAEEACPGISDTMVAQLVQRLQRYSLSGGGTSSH

[7] = biological target: Interleukin-1 receptor-associated kinase 4 (Homo sapiens) (UniProt Q9NWZ3); conditions: Compound concentration 1000.0 nM
Sequence of Interleukin-1 receptor-associated kinase 4 (Homo sapiens) (Q9NWZ3 whole entry): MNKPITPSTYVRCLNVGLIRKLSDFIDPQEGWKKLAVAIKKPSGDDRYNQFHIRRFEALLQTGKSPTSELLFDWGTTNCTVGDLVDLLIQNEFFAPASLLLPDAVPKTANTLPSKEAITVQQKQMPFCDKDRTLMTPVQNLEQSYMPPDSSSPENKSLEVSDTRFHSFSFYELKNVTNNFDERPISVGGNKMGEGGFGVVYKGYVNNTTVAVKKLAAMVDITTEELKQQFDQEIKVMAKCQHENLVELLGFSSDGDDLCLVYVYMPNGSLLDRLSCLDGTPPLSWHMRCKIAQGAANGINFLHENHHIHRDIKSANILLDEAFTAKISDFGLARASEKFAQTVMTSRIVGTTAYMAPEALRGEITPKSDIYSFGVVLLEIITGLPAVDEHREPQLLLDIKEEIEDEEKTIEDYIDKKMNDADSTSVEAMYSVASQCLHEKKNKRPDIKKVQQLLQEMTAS

[8] = biological target: T2, Alpha-1D adrenergic receptor (Homo sapiens) (UniProt P25100); conditions: Compound concentration 10.0 uM
T2 sequence (whole entry): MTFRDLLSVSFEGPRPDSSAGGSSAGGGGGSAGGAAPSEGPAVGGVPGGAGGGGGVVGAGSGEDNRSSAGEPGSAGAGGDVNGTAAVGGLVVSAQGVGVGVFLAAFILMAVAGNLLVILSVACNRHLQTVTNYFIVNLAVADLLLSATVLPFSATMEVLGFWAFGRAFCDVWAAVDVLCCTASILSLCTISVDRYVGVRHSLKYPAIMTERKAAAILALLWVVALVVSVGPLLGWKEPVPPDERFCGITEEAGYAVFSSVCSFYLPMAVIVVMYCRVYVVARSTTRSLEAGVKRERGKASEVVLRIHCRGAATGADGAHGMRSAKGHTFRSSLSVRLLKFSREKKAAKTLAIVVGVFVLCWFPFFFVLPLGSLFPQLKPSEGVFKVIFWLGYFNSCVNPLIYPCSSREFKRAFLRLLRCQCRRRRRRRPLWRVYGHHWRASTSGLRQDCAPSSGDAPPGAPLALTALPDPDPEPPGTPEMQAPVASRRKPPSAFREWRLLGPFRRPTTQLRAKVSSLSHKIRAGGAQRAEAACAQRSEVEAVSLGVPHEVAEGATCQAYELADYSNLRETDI

[9] = biological target: TGF-beta receptor type-2 (Homo sapiens) (UniProt P37173); conditions: Compound concentration 1000.0 nM
[10] = biological target: Casein kinase I isoform gamma-2 (Homo sapiens) (UniProt P78368); conditions: Compound concentration 1000.0 nM
[11] = biological target: 5'-AMP-activated protein kinase catalytic subunit alpha-2 (Homo sapiens) (UniProt P54646); conditions: Compound concentration 1000.0 nM
[12] = biological target: Serine/threonine-protein kinase ICK (Homo sapiens) (UniProt Q9UPZ9); conditions: Compound concentration 1000.0 nM
Sequence of Serine/threonine-protein kinase ICK (Homo sapiens) (Q9UPZ9 whole entry): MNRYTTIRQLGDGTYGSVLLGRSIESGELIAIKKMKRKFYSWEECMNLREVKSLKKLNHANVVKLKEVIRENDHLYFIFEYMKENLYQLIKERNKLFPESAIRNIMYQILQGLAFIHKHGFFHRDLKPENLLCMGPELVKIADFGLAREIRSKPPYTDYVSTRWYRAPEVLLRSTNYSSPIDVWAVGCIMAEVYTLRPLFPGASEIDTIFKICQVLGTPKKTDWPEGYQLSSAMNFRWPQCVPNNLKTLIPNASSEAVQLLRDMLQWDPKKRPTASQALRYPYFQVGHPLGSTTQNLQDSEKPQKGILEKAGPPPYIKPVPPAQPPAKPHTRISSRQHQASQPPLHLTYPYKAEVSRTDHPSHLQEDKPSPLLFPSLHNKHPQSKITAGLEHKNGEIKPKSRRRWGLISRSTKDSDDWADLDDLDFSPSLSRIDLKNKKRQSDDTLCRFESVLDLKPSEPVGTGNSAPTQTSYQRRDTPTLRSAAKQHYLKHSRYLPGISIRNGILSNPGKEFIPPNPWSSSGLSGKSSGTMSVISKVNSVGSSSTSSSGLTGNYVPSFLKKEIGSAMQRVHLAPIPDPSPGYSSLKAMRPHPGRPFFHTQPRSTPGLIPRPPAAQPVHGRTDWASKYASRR

[13] = biological target: Serine/threonine-protein kinase 33 (Homo sapiens) (UniProt Q9BYT3); conditions: Compound concentration 1000.0 nM
[14] = biological target: Ribosomal protein S6 kinase alpha-1 (Homo sapiens) (UniProt Q15418); conditions: Compound concentration 1000.0 nM
Sequence of Ribosomal protein S6 kinase alpha-1 (Homo sapiens) (Q15418 whole entry): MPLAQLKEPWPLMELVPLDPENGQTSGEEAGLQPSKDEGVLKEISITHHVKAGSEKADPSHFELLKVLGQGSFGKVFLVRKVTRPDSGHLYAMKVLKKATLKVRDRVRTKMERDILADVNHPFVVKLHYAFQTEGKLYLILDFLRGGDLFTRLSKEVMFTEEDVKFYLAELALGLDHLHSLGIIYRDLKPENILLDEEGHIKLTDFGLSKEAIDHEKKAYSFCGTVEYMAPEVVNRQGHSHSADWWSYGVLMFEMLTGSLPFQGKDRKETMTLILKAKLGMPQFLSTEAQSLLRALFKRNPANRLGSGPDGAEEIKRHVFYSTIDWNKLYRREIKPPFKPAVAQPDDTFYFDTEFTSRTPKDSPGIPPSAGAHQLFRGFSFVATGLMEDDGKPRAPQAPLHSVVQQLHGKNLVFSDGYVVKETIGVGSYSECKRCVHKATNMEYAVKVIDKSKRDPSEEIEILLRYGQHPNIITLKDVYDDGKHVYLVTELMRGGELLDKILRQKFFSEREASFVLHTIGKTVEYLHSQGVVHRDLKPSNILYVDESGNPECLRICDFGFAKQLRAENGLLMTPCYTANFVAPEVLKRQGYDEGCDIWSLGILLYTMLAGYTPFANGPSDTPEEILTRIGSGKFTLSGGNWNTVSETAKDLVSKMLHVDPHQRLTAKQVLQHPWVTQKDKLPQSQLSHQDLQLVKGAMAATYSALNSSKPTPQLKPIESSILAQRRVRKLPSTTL

[15] = biological target: Serine/threonine-protein kinase OSR1 (Homo sapiens) (UniProt O95747); conditions: Compound concentration 1000.0 nM
Sequence of Serine/threonine-protein kinase OSR1 (Homo sapiens) (O95747 2-527 limits assumed): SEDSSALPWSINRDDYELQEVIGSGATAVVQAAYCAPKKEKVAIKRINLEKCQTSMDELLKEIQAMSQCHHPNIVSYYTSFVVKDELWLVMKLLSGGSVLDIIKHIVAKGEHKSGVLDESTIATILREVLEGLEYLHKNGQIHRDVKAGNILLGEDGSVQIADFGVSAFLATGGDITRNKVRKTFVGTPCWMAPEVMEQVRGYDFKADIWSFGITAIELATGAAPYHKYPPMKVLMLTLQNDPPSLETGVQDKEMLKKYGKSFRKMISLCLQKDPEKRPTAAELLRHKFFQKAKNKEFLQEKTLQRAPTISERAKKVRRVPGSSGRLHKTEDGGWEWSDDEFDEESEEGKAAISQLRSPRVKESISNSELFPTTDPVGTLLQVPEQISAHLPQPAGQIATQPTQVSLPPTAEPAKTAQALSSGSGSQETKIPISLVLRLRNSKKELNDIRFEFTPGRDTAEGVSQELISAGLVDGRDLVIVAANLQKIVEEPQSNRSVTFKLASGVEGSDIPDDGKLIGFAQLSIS

[16] = biological target: Rho-associated protein kinase 2 (Homo sapiens) (UniProt O75116); conditions: Compound concentration 1000.0 nM
[17] = biological target: Dual specificity tyrosine-phosphorylation-regulated kinase 1B (Homo sapiens) (UniProt Q9Y463); conditions: Compound concentration 1000.0 nM
[18] = biological target: Fibroblast growth factor receptor 2 (Homo sapiens) (UniProt P21802); conditions: Compound concentration 1000.0 nM
Sequence of Fibroblast growth factor receptor 2 (Homo sapiens) (P21802 22-821 limits assumed): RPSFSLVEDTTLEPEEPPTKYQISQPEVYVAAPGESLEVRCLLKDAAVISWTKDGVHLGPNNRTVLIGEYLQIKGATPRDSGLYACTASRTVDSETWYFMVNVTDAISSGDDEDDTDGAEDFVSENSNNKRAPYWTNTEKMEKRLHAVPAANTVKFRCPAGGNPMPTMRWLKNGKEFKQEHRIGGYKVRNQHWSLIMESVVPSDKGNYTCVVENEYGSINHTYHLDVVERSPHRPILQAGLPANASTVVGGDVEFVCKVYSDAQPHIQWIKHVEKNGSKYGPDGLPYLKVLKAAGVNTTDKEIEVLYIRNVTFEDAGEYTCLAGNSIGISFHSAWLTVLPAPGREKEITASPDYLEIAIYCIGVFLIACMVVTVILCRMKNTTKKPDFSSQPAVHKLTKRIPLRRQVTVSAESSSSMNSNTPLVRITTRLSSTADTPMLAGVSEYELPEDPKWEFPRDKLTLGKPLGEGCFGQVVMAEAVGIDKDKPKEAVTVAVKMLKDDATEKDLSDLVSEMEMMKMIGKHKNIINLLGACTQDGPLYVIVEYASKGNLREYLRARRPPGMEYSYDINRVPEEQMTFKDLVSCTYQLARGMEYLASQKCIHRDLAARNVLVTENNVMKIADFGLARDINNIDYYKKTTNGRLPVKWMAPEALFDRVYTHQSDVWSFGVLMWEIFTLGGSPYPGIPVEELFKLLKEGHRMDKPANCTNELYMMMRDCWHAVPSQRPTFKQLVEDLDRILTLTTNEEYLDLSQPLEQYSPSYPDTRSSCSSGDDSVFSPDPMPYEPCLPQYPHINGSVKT

[19] = biological target: Cyclin-dependent kinase 11A (Homo sapiens) (UniProt Q9UQ88); conditions: Compound concentration 1000.0 nM
Sequence of Cyclin-dependent kinase 11A (Homo sapiens) (Q9UQ88 whole entry): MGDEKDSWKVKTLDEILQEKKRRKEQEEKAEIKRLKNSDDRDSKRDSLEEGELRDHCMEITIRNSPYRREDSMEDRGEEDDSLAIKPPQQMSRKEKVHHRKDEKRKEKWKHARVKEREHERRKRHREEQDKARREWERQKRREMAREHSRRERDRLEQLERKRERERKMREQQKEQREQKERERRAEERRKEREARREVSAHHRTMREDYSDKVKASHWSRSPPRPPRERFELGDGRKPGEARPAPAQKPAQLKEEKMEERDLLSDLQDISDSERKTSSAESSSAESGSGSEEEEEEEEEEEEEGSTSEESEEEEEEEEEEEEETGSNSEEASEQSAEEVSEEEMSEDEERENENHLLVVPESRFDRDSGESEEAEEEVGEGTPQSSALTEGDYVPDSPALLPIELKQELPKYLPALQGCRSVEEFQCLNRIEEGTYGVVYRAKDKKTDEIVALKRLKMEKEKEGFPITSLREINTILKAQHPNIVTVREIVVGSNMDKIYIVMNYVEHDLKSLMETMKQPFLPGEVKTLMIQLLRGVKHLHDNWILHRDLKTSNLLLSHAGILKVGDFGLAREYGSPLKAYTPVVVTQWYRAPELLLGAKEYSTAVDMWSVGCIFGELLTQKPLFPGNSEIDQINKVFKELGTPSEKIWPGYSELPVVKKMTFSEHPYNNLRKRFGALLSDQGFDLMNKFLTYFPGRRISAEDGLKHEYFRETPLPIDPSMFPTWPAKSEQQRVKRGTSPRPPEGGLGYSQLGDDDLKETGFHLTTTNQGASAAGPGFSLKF

[20] = biological target: Glycogen synthase kinase-3 beta (Homo sapiens) (UniProt P49841); conditions: Compound concentration 1000.0 nM
[21] = biological target: Wee1-like protein kinase (Homo sapiens) (UniProt P30291); conditions: Compound concentration 1000.0 nM
Sequence of Wee1-like protein kinase (Homo sapiens) (P30291 whole entry, looked up, canonical isoform): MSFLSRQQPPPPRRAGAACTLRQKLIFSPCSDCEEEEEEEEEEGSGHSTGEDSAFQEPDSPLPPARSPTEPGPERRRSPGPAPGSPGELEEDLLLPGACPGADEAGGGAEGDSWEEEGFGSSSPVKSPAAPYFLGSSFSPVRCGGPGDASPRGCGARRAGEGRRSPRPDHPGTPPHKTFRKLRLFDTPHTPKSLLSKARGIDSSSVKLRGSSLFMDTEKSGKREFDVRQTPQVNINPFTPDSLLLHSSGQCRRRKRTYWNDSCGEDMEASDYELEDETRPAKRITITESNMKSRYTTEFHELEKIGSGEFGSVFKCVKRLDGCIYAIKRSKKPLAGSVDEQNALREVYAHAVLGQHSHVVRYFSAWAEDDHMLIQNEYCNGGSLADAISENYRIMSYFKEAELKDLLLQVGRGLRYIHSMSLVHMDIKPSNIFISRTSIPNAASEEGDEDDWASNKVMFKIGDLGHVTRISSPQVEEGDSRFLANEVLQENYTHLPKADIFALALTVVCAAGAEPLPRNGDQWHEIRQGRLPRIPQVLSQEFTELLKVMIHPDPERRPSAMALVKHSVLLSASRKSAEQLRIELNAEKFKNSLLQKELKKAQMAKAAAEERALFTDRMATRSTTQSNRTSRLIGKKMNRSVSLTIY

[22] = biological target: Casein kinase I isoform gamma-1 (Homo sapiens) (UniProt Q9HCP0); conditions: Compound concentration 1000.0 nM
[23] = biological target: Tyrosine-protein kinase HCK (Homo sapiens) (UniProt P08631); conditions: Compound concentration 1000.0 nM
[24] = biological target: Oxytocin receptor (Homo sapiens) (UniProt P30559); experiment: Oxytocin Eurofins-Panlabs radioligand binding assay; conditions: Compound concentration 10.0 uM
Homo sapiens = species on record: Homo sapiens; experiment: (§1) Inhibition of Phosphodiesterase PDE4 at compound concentration of 10.0 uM in the Eurofins-Panlabs enzyme assay (Eurofins_assay_154000); type: protein assay; parameters: substrate with concentration 1.01 uM [3 H]cAMP + cAMP, incubation time 20 min, incubation temperature 25 C
[25] = as §1; type: protein assay, Homo sapiens; parameters: substrate with concentration 1.01 uM [3 H]cAMP + cAMP, incubation time 20 min, incubation temperature 25 C
[26] = biological target: Vasopressin V2 receptor (Homo sapiens) (UniProt P30518); experiment: Vasopressin V2 Eurofins-Panlabs radioligand binding assay; parameters: ligand concentration 0.5 nM; conditions: Compound concentration 10.0 uM
[27] = biological target: Cholecystokinin receptor type A (Homo sapiens) (UniProt P32238); experiment: Inhibition of Cholecystokinin CCK1 (CCKA) at 10 µM in the Eurofins-Panlabs radioligand binding assay (Eurofins_assay_218020)
[28] = biological target: Prostacyclin receptor (Homo sapiens) (UniProt P43119); experiment: Prostanoid IP Eurofins-Panlabs radioligand binding assay; parameters: ligand concentration 5 nM; conditions: Compound concentration 10.0 uM
Bos taurus = species on record: Bos taurus; experiment: (§2) Protein Serine/Threonine Kinase, PKA, Non-Selective Eurofins-Panlabs enzyme assay; type: protein-complex assay; parameters: substrate with concentration 370 µg/mL Histone Type III-S, incubation time 15 min, incubation temperature 25 °C
[29] = as §2; type: protein-complex assay, Bos taurus; parameters: substrate with concentration 370 µg/mL Histone Type III-S, incubation time 15 min, incubation temperature 25 °C
[30] = biological target: Estrogen receptor (Homo sapiens) (UniProt P03372); conditions: Compound concentration 10.0 uM
[31] = Compound concentration 100.0 uM

Cc1c(C(=O)O)cc(-c2ccc(C3CCNCC3)cc2)c2ccc(-c3ccc(C(F)(F)F)cc3)cc12 [PPTN-NC]
inactive: residual activity [1] 100% | residual activity [2] 100% | residual activity [3] 100% | residual activity [4] 100% | inhibition [5] 1.01% | residual activity [6] 100% | residual activity [7] 100% | inhibition [8] 13.3% | residual activity [9] 100% | residual activity [10] 100% | residual activity [11] 100% | residual activity [12] 100% | residual activity [13] 100% | residual activity [14] 100% | residual activity [15] 100% | residual activity [16] 89% | residual activity [17] 74% | residual activity [18] 100% | residual activity [19] 100% | residual activity [20] 100% | residual activity [21] 80% | residual activity [22] 100% | residual activity [23] 100%

O=C(O)c1cc(-c2ccc(C3CCNCC3)cc2)c2ccc(-c3ccc(C(F)(F)F)cc3)cc2c1 [PPTN]
inactive: residual activity [1] 100% | residual activity [2] 72% | residual activity [3] 100% | residual activity [4] 100% | inhibition [24] 0% | inhibition [5] 11.2% | inhibition (Homo sapiens; Compound concentration 0.1 uM) -6% | inhibition (Homo sapiens; Compound concentration 1.0 uM) 0% | inhibition (Homo sapiens; Compound concentration 10.0 uM) 24% | inhibition (Homo sapiens; [31]) 49% | residual activity [6] 100% | inhibition [26] 28% | residual activity [7] 100% | inhibition [8] 33.5% | residual activity [9] 100% | residual activity [10] 100% | residual activity [11] 100% | residual activity [12] 100% | residual activity [13] 100% | inhibition [27] 10% | residual activity [14] 100% | residual activity [15] 100% | residual activity [16] 100% | inhibition [28] -3% | residual activity [17] 88% | residual activity [18] 100% | inhibition (Bos taurus; Compound concentration 0.1 uM) -10% | inhibition (Bos taurus; Compound concentration 1.0 uM) 9% | inhibition (Bos taurus; Compound concentration 10.0 uM) 46% | residual activity [19] 100% | residual activity [20] 100% | inhibition [30] 12% | residual activity [21] 98% | residual activity [22] 100% | residual activity [23] 100%
100 µM: IC50 [25]
11.4 µM: IC50 [29]
active: inhibition (Bos taurus; [31]) 91%
